Data: PubChem BioAssay (NCI)
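Compound exposure: 48 hours, 5 concentrations, 96-well plates. TGI: concentration producing complete growth inhibition.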

Tests used:
Experiment in all cases: NCI anticancer screen, dose series, 48 h
COLO 205 colon = system: COLO 205 colon
SW-620 colon = system: SW-620 colon
OVCAR-5 ovarian = system: OVCAR-5 ovarian
NCI-H23 lung = system: NCI-H23 lung
SK-OV-3 ovarian = system: SK-OV-3 ovarian
EKVX NSCLC = system: EKVX NSCLC
UACC-257 melanoma = system: UACC-257 melanoma
NCI-H460 lung = system: NCI-H460 lung
OVCAR-3 ovarian = system: OVCAR-3 ovarian
CCRF-CEM leukemia = system: CCRF-CEM leukemia
MDA-MB-231 breast = system: MDA-MB-231 breast
SK-MEL-28 melanoma = system: SK-MEL-28 melanoma
PC-3 prostate = system: PC-3 prostate
SN12C renal = system: SN12C renal
MCF7 breast = system: MCF7 breast
A549 NSCLC = system: A549 NSCLC
M14 melanoma = system: M14 melanoma
U251 CNS = system: U251 CNS
OVCAR-8 ovarian = system: OVCAR-8 ovarian
HCT-116 colon = system: HCT-116 colon
HCC-2998 colon = system: HCC-2998 colon
IGROV1 ovarian = system: IGROV1 ovarian
HCT-15 colon = system: HCT-15 colon
HL-60(TB) leukemia = system: HL-60(TB) leukemia
SR leukemia = system: SR leukemia
MDA-MB-435 = system: MDA-MB-435
KM12 colon = system: KM12 colon
NCI-H522 lung = system: NCI-H522 lung
UACC-62 melanoma = system: UACC-62 melanoma
SK-MEL-5 melanoma = system: SK-MEL-5 melanoma
UO-31 renal = system: UO-31 renal
BT-549 breast = system: BT-549 breast
786-0 renal = system: 786-0 renal
NCI-H226 lung = system: NCI-H226 lung
HT29 colon = system: HT29 colon
TK-10 renal = system: TK-10 renal
SNB-75 CNS = system: SNB-75 CNS
RPMI-8226 leukemia = system: RPMI-8226 leukemia
HOP-92 NSCLC = system: HOP-92 NSCLC
MOLT-4 leukemia = system: MOLT-4 leukemia
ACHN renal = system: ACHN renal
DU-145 prostate = system: DU-145 prostate
NCI/ADR-RES ovarian = system: NCI/ADR-RES ovarian
MALME-3M melanoma = system: MALME-3M melanoma
LOX IMVI melanoma = system: LOX IMVI melanoma
HOP-62 NSCLC = system: HOP-62 NSCLC
HS 578T breast = system: HS 578T breast
OVCAR-4 ovarian = system: OVCAR-4 ovarian
K-562 leukemia = system: K-562 leukemia
CAKI-1 renal = system: CAKI-1 renal
SF-539 CNS = system: SF-539 CNS
SF-268 CNS = system: SF-268 CNS
SF-295 CNS = system: SF-295 CNS
T-47D breast = system: T-47D breast

What does the source list for `COc1ccc(/C=C2\CCCc3ccccc3C2=O)cc1`?
TGI (COLO 205 colon): 0.557 µM; TGI (SW-620 colon): > 100 µM; TGI (OVCAR-5 ovarian): > 100 µM; TGI (NCI-H23 lung): 7.76 µM; TGI (SK-OV-3 ovarian): > 60.6 µM; TGI (EKVX NSCLC): > 100 µM; TGI (UACC-257 melanoma): 37.8 µM; TGI (NCI-H460 lung): > 100 µM; TGI (OVCAR-3 ovarian): 0.422 µM; TGI (CCRF-CEM leukemia): 24.8 µM; TGI (MDA-MB-231 breast): 42.1 µM; TGI (SK-MEL-28 melanoma): > 100 µM; TGI (PC-3 prostate): > 100 µM; TGI (SN12C renal): 16.9 µM; TGI (MCF7 breast): 99.2 µM; TGI (A549 NSCLC): > 54.4 µM; TGI (M14 melanoma): 22.2 µM; TGI (U251 CNS): 35.1 µM; TGI (OVCAR-8 ovarian): > 44.5 µM; TGI (HCT-116 colon): 20.5 µM; TGI (HCC-2998 colon): 28.2 µM; TGI (IGROV1 ovarian): > 100 µM; TGI (HCT-15 colon): > 33.1 µM; TGI (HL-60(TB) leukemia): 9.55 µM; TGI (SR leukemia): > 32 µM; TGI (MDA-MB-435): 53.1 µM; TGI (KM12 colon): 17.6 µM; TGI (NCI-H522 lung): 1.71 µM; TGI (UACC-62 melanoma): 26 µM; TGI (SK-MEL-5 melanoma): 16 µM; TGI (UO-31 renal): > 100 µM; TGI (BT-549 breast): 17.3 µM; TGI (786-0 renal): 12.2 µM; TGI (NCI-H226 lung): 2.98 µM; TGI (HT29 colon): 14.6 µM; TGI (TK-10 renal): > 96.6 µM; TGI (SNB-75 CNS): > 82.3 µM; TGI (RPMI-8226 leukemia): 21.5 µM; TGI (HOP-92 NSCLC): 88.1 µM; TGI (MOLT-4 leukemia): 35.3 µM; TGI (ACHN renal): > 100 µM; TGI (DU-145 prostate): 1.74 µM; TGI (NCI/ADR-RES ovarian): > 100 µM; TGI (MALME-3M melanoma): > 100 µM; TGI (LOX IMVI melanoma): 17.4 µM; TGI (HOP-62 NSCLC): 76.7 µM; TGI (HS 578T breast): 37.1 µM; TGI (OVCAR-4 ovarian): > 100 µM; TGI (K-562 leukemia): > 100 µM; TGI (CAKI-1 renal): > 66.7 µM; TGI (SF-539 CNS): 5.11 µM; TGI (SF-268 CNS): 5.53 µM

How did the TGI (COLO 205 colon) turn out when `CN(C)c1ccc(/C=c2/c3ccccc3n3c2cc(/C=C/c2ccccc2)[n+]3C)cc1` was run?
Its TGI is 0.315 µM.

What about the TGI (SK-OV-3 ovarian) of the same compound?
Its TGI is 1.14 µM.

What about the TGI (OVCAR-3 ovarian) of the same compound?
Its TGI is 0.795 µM.

What about the TGI (CCRF-CEM leukemia) of the same compound?
The TGI was 0.0821 µM.

What about the TGI (MCF7 breast) of the same compound?
Its TGI is 0.591 µM.

And the TGI (SF-295 CNS)?
Its TGI is 0.944 µM.

And the TGI (HCC-2998 colon)?
The TGI was 1.08 µM.

And the TGI (HCT-15 colon)?
The TGI was 3.49 µM.

What about the TGI (SK-MEL-5 melanoma) of the same compound?
Its TGI is 0.272 µM.

And the TGI (T-47D breast)?
Its TGI is 0.123 µM.

What about the TGI (TK-10 renal) of the same compound?
The TGI was 3.77 µM.

And the TGI (ACHN renal)?
The TGI was 1.22 µM.

What about the TGI (DU-145 prostate) of the same compound?
Its TGI is 1.37 µM.

What about the TGI (NCI/ADR-RES ovarian) of the same compound?
The TGI was greater than 50.6 µM.

And the TGI (HOP-62 NSCLC)?
Its TGI is 1.16 µM.

And the TGI (OVCAR-4 ovarian)?
The TGI was 1.86 µM.

What about the TGI (K-562 leukemia) of the same compound?
The TGI was greater than 100 µM.

And the TGI (CAKI-1 renal)?
Its TGI is 51.2 µM.

What about the TGI (SF-539 CNS) of the same compound?
The TGI was 0.132 µM.
